Data from patent US20260109674A1, “ALLOSTERIC MODULATION OF MUSCARINIC ACETYLCHOLINE RECEPTOR EFFICACY” (The University of Toledo, priority 2022, published 2026).
Counter-ions that a name gives are not always drawn. Marks after values point to notes of the source that are not given here.

Tests used:
[1] = biological target: T1, M1 muscarinic receptors expressed in CHO cells (Homo sapiens, UniProt P11229); assay: [3H]-arachidonic acid release screen with and without ACh and modulator; format: cell-based
T1 construct: expressed in transfected cells; host or cells: CHO (CHO-hM1, stably transfected)
T1 sequence (P11229 1-460): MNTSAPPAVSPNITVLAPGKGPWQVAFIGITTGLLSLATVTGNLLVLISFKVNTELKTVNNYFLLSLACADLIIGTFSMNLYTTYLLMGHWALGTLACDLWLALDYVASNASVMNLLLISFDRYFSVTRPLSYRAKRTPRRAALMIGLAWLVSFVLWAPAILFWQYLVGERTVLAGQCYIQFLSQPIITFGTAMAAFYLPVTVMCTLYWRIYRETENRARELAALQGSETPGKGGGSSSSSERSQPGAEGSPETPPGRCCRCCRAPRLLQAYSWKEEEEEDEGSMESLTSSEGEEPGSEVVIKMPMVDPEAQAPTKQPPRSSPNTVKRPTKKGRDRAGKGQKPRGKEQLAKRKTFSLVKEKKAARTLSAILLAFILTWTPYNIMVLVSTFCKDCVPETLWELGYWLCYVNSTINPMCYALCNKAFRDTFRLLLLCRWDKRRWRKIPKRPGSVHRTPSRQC

[2] = biological target: T1, M1 muscarinic receptors expressed in CHO cells; assay: Full ACh dose-response curves of [3H]AA release fitted to the allosteric operational model; format: cell-based; conditions: modulator 10 μM
Protocol: Measurement of [^3H]AA release was performed. Stably transfected CHO-hM1 or CHO-hM3 cells were seeded on 24-well plates (Greiner Bio-One GmbH, Frickenhausen, Germany) at a density of 5.0×10^4 cells/well in 0.5 ml of F-12 medium. Cells were incubated until they attached (approximately 3 h), followed by the addition of [^3H]AA to a final concentration of 0.05 μCi of [^3H]AA per well. The cells were then grown for 16 to 20 h before the assay was performed. [^3H]AA release was measured in Eagle's basal medium with 20 mM HEPES and 2 mg/ml fatty acid-free bovine serum albumin (EM-BSA). Cells were rinsed twice with EM-BSA, followed by the addition of EM-BSA media containing experimental agents and incubated for 1 h at 37° C. The assay was terminated by aspiration of the media, and the amount of [^3H]AA released was determined by liquid scintillation counting (Beckman-Coulter LS6500).
Tabulated [^3H]AA release data are represented as a fraction of maximal release in the presence of 100 μM ACh or as the fraction of release elicited by the appropriate concentration of ACh alone, as indicated dose-response curves were normalized to the maximal response of ACh without allosteric ligand. Some response curves were analyzed using the empirical four-parameter equation: […]
where X is the log of the concentration of the ligand used, Y is the amount of response, C50 is the concentration of the ligand that produces 50% of the maximal effect, Top and Bottom are the top and bottom plateaus of the curve, respectively, and n is related to the Hill slope for the curve. In some cases, families of response curves were analyzed according to the allosteric operational model:
where EM is the maximal response; A is the concentration of ACh; B is the concentration of the allosteric ligand; τA and τB represent the intrinsic efficacies of A and B, respectively; KA and KB are the equilibrium dissociation constants of A and B, respectively; and α and β represent the cooperativities between A and B in terms of binding and activation, respectively. Curve-fitting was carried out with GraphPad Prism, version 5.0 or 6.0 (San Diego CA).

[3] = tested on: wild-type zebrafish larvae; assay: Maximum tolerated concentration (MTC) determination in zebrafish larvae; format: in vivo, Danio rerio; conditions: after 24-hour exposure; Table 3
[4] = tested on: wild-type zebrafish larvae; assay: General locomotor assay in zebrafish larvae (locomotor activity, repetitive behaviors); format: in vivo, Danio rerio; conditions: Table 3; test concentration not given; N = 12

CCN(CC)CCOc1c(Br)cc(CN2C(=O)C(=O)c3ccccc32)cc1Br [Compound 8l, 1-(3,5-dibromo-4-(2-(diethylamino)ethoxy)benzyl)indoline-2,3-dione hydrochloride]
Ratio of response of ACh with modulator to response of ACh alone, 0.1 μM ACh ([1]; 10 μM modulator, 0.1 μM ACh, Table 1): 0.19 ± 0.06
Ratio of response of ACh with modulator to response of ACh alone, 100 μM ACh ([1]; 10 μM modulator, 100 μM ACh, Table 1): 0.87 ± 0.06
Stimulation of [3H]AA release, No ACh (fraction of stimulation above the control) ([1]; 10 μM modulator, no ACh, Table 1): 0.04 ± 0.00
Modulation of ACh activity (in words) ([1]; [3H]AA release, modulator 10 μM): results only in a decrease in ACh activity
Effect on ACh potency and efficacy in full ACh dose-response curves (in words) [2]: decreased ACh potency with little impact on ACh efficacy
Maximum Tolerated Concentration [3]: 10 µM
Angular Velocity [4]: 184.7 ± 17.0*** % of control
Total Distance Moved [4]: 33.5 ± 4.4** % of control
Variance of Turn Angle [4]: 166.1 ± 12.5*** % of control
